Like-named read-outs stand apart in the source and are kept apart here.
Tests used:
[1] = target: T1, human GPR40 (Homo sapiens, UniProt O14842); assay: EC50 by FLIPR calcium assay in CHO cells stably expressing human GPR40; format: cell-based
T1 construct: The resulting fragment (ca. 1 kb) was introduced into vector pAKKO-111, which was used for transfection of CHO cells; expressed in transfected cells
Description: (§1) For determination of EC50 values, the CHO cell lines in which human-, mouse- and rat-derived GPR40 was stably expressed were used. Unless otherwise indicated, these CHO cell lines were incubated in α-MEM medium (Invitrogen) supplemented with 10% fetal calf serum (Invitrogen).
(§2) On the day before assay, the cells incubated to almost confluent stage were rinsed with PBS (Invitrogen), then scraped in 0.05% trypsin-EDTA solution (Invitrogen) and recovered by centrifugal operation. The number of the cells obtained was counted and diluted so as to contain 3×10^5 cells/1 mL of the medium. The dilution was dispensed in a Black welled 96-well plate (Coster) in 100 μL/well, followed by incubation overnight in a CO2 incubator. To the thus prepared CHO cells, various test samples were added and the changes in intracellular calcium level in this case were measured using FLIPR (Molecular Device). In order to determine the changes in the intracellular calcium ion level on FLIPR, the cells were pre-treated by the following procedures.
(§3) First, for the purpose of adding a fluorescent dye Fluo-3 AM (DOJIN) to the cells or washing the cells immediately before the FLIPR assay, an assay buffer was prepared. A solution obtained by adding 20 mL of 1M HEPES (pH 7.4) (DOJIN) to 1000 mL of HBSS (Invitrogen) was prepared (hereinafter HBSS/HEPES solution), to which 10 mL of a solution mixture obtained by dissolving 710 mg of Probenecid (Sigma) in 5 mL of 1N NaOH and further adding 5 mL of HBSS/HEPES solution was added. The resulting solution was used as the assay buffer. Next, 50 μg of Fluo-3AM was dissolved in 21 μL of DMSO (Wako) and an equal volume of 20% Pulronic acid (Molecular Probes) was added to and mixed with the solution. The mixture was then added to 10.6 mL of the assay buffer supplemented with 105 μL of fetal calf serum to prepare a fluorescent dye solution. […], the medium for the CHO cells again plated in a Black welled 96-well plate was removed. Immediately thereafter, the fluorescent dye solution was dispensed in 100 μL each/well and the cells were incubated in a CO2 incubator for an hour so that the fluorescent dye was taken up into the cells. The cells after the incubation was washed with the assay buffer described above and set on FLIPR. […] After the pre-treatment above was made, the changes in intracellular calcium level after the addition of various test samples were measured on FLIPR.

[2] = target: T2, Mouse GPR40 (Mus musculus, UniProt Q76JU9); assay: EC50 by FLIPR calcium assay in CHO cells stably expressing mouse GPR40; format: cell-based
T2 construct: expressed in transfected cells
T2 sequence (Q76JU9 whole entry): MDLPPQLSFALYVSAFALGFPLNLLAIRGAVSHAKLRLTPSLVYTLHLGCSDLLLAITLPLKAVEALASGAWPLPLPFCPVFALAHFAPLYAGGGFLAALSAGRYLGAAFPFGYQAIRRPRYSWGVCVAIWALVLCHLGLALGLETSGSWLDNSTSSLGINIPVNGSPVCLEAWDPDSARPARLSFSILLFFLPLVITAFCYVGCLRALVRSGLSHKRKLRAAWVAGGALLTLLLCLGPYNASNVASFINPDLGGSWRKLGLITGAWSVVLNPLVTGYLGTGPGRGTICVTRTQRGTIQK
Description: as §1, §2, §3

[3] = target: T3, Rat GPR40 (Rattus norvegicus, UniProt Q8K3T4); assay: EC50 by FLIPR calcium assay in CHO cells stably expressing rat GPR40; format: cell-based
T3 construct: expressed in transfected cells
T3 sequence (Q8K3T4 whole entry): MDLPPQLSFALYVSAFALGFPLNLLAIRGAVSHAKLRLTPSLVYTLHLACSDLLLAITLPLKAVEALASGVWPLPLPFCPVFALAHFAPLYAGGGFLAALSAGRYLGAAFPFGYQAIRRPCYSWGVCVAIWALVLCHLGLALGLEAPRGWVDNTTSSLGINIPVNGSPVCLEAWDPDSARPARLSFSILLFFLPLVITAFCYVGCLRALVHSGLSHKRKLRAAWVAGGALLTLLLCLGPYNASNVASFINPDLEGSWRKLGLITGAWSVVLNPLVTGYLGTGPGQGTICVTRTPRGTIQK
Description: as §1, §2, §3

[4] = target: T4, human-derived GPR40 (Homo sapiens, UniProt O14842); assay: Intracellular calcium change (FLIPR) in CHO-K1 cells transiently expressing GPR40; format: cell-based; settings: added in 10^−5 M to 10^−6 M; no response in vector-only control cells
T4 construct: The DNA fragment encoding human GPR40 was acquired by the following PCR procedures; expressed in transfected cells; host or cells: CHO-K1 (transient, Lipofectamine)
T4 sequence (O14842 whole entry, the tested form may be a part): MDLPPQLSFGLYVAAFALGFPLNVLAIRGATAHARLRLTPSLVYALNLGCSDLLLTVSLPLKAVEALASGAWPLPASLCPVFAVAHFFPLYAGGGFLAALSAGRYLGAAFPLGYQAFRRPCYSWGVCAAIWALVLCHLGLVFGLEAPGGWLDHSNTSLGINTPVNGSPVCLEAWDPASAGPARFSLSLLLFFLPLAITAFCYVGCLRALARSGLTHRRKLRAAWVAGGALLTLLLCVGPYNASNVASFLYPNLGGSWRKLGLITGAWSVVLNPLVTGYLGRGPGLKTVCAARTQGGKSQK
Description: The CHO-K1 cell line was cultured in HAM F-12 medium (Invitrogen) containing 10% fetal calf serum (Invitrogen), unless otherwise indicated. One day before transfection, 4.5×10^5 cells per 10 cm^2 were plated, followed by incubation in a CO2 incubator adjusted to a concentration of 5% CO2 at 37° C. for at least 15 hours. Using Lipofectamine reagent (Invitrogen), transfection procedures were carried out by modifications of the method attached to the reagent. When a 6-well plate was used for the incubator, the following procedures were performed. First, 2 tubes each having a 1.5 ml volume were prepared and 100 μl each of Opti-MEM-I medium (Invitrogen) was dispensed in each tube. Next, 1 μg of the expression vector was charged in one tube and in another tube, 6 μl of Lipofectamine reagent was charged, which were mixed together. The mixture was settled for 20 minutes at room temperature. To the solution, 800 μl of Opti-MEM-I medium was added and the resulting solution mixture for transfection was added to CHO-K1 cells, which had been previously washed with Opti-MEM-I medium. Then, the cells were incubated in a CO2 incubator for 6 hours. After the incubation, the cells were rinsed with PBS (Invitrogen), then scraped using 0.05% trypsin-EDTA solution (Invitrogen) and recovered by centrifugal operation. The cells obtained were counted and diluted to 5×10^4 cells per 200 μl of the medium. The dilution was dispensed onto a Black walled 96-well plate (Costar) in 200 μl each per well, followed by incubation overnight in a CO2 incubator. Various test samples were added to the CHO-K1 cells in which the receptor was transiently expressed by the transfection operation described above, whereby changes in the intracellular calcium ion level were determined using FLIPR (Molecular Device). In order to determine the changes in the intracellular calcium ion level on FLIPR, the cells were pre-treated by the following procedures. First, for the purpose of adding a fluorescent dye Fluo-3 AM (DOJIN) to the cells or washing the cells immediately before the FLIPR assay, an assay buffer was prepared. A solution obtained by adding 20 ml of 1M HEPES (pH 7.4) (DOJIN) to 1000 ml of HBSS (Invitrogen) was prepared (hereinafter HBSS/HEPES solution), to which 10 ml of a solution mixture obtained by dissolving 710 mg of Probenecid (Sigma) in 5 ml of 1N NaOH and further adding 5 ml of HBSS/HEPES solution was added. The resulting solution was used as the assay buffer. Next, 50 μg of Fluo-3AM was dissolved in 21 μl of DMSO (DOJIN) and an equal volume of 20% Pulronic acid (Molecular Probes) was added to and mixed with the solution. The mixture was then added to 10.6 ml of the assay buffer supplemented with 105 μl of fetal calf serum to prepare a fluorescent dye solution. The medium for the transfection-treated CHO-K1 cells was removed. Immediately thereafter, the fluorescent dye solution was dispensed in 100 μl each/well and the cells were incubated in a CO2 incubator for an hour so that the fluorescent dye was taken up into the cells. The cells after the incubation was washed with the assay buffer described above and set on FLIPR. A test sample added to the receptor-expressed CHO-K1 cells was prepared using the assay buffer and set on FLIPR at the same time. After various test samples were added thereto.
Following the pre-treatment above, changes in intracellular calcium level after addition of various test samples were measured on FLIPR.

[5] = system: mouse pancreatic β cell line MIN6; assay: Insulin secretion from MIN6 in KRBH buffer (immunoassay); format: cell-based; settings: 22 mM glucose KRBH, 90 minutes
Description: The mouse pancreatic β cell line MIN6 incubated in a flask was scraped in PBS containing 2.5 mM EDTA and plated in a 96-well plate followed by incubation for 2 days. The medium used was the same as in EXAMPLE 24, namely, 4.5 g/l of glucose-containing Dulbecco's Modified Eagle Medium (DMEM, Invitrogen, Inc.) supplemented with 15% fetal calf serum (ThermoTrace, Inc.), 5.5 μM 2-mercaptethanol (Invitrogen, Inc.), 20 mM HEPES pH 7.3, 100 U/ml penicillin and 100 μg/ml streptomycin. The cells were washed twice with modified Krebs-Ringer bicarbonate buffer (KRBH, 116 mM NaCl, 4.7 mM KCl, 1.2 mM KH2PO4, 1.2 mM MgSO4, 2.5 mM CaCl2, 25 mM NaHCO3, 24 mM HEPES, pH 7.3), followed by preincubation at 37° C. in 5% CO2 for 30 minutes. The fatty acid diluted/prepared using the aforesaid KRBH buffer added with 22 mM glucose was added to the cells after the preincubation, followed by incubation under the conditions of 37° C. in 5% CO2 for 90 minutes. After the incubation, the supernatant of the cells was recovered and stored in a frozen state. The insulin content in the supernatant was assayed using an insulin immunoassay kit commercially available (Amersham Pharmacia, Inc.).
Based on the method of EXAMPLE 25, effects of glucose level when added with fatty acids were examined. The level of glucose, which was added to KRBH upon the addition of fatty acids, was varied to 0, 5.5, 11 and 22 mM to study the effects.
The insulin secretion enhancing activity in the m40i103-introduced MIN6 cells using HVJ Envelope VECTOR KIT GenomONE based on the method of EXAMPLE 18 was examined. The insulin secretion enhancing activity by fatty acids was examined according to the method of EXAMPLE 25.
Based on the procedures of EXAMPLE 25, an essential prerequisite of Ca^2+ ions in the extracellular fluid was examined. In preincubation and incubation with a sample, Ca^2+ ions were removed and 0.1 mM EGTA, which was a reagent for chelating Ca^2+ ions, was further added, and then the insulin secretion enhancing activity by fatty acids was examined in this case.
Based on the method of EXAMPLE 25, effects of Ca^2+ channel blocker (Nifedipine) and MAP kinase inhibitor (PD98059) were examined. In preincubation and incubation with a sample, the insulin secretion enhancing activity by fatty acids was examined when Nifedipine (10 μM) or PD98059 (50 μM) was added.
It is known that fatty acids have the property of binding to albumin. Based on the method of EXAMPLE 25, effects were examined when bovine serum albumin (BSA) was present. In preincubation and incubation with a sample, the insulin secretion activity by fatty acids was examined when 0.1% BSA was added to the buffer.

[6] = system: MIN6 cells; assay: FLIPR intracellular calcium assay using MIN6; format: cell-based, mouse; settings: 10 μM fatty acid
Description: Mouse pancreatic β cell line MIN6 incubated in a flask was scraped using PBS containing 2.5 mM EDTA and diluted so as to contain 3×10^5 cells/1 mL of the medium. The dilution was dispensed in a Black welled 96-well plate (Coster) in 100 μL/well, followed by incubation in a CO2 incubator for 2 days. The medium used was 4.5 g/l of glucose-containing Dulbecco's Modified Eagle Medium (DMEM, Invitrogen, Inc.) supplemented with 15% fetal calf serum (ThermoTrace, Inc.), 5.5 μM 2-mercaptethanol (Invitrogen, Inc.), 20 mM HEPES pH 7.3, 100 U/ml penicillin and 100 μg/ml streptomycin. To the thus prepared MIN6 cells, various fatty acids (10 μM) were added and the changes in intracellular calcium level in this case were measured using FLIPR (Molecular Device). The changes in the intracellular calcium ion level on FLIPR were assayed in accordance with the procedures described in EXAMPLE 24.

[7] = intracellular calcium, FLIPR, stable CHO line, read-out: EC50 Human GPR40
[8] = intracellular calcium, FLIPR, stable CHO line, read-out: EC50 Mouse GPR40
[9] = intracellular calcium, FLIPR, stable CHO line, read-out: EC50 Rat GPR40
[10] = intracellular calcium, FLIPR, stable CHO line

T1 sequence (O14842 whole entry, the tested form may be a part): as above

| EC50 [1, 7] | EC50 [2, 8] | EC50 [3, 9] | Compound | response (increase in intracellular calcium level) of GPR40-expressing CHO-K1 cells [4] | also measured |
| --- | --- | --- | --- | --- | --- |
| 2.3 ± 0.4 µM | 4.9 ± 0.8 µM | 9.8 ± 0.6 µM | CC/C=C\C/C=C\C/C=C\C/C=C\C/C=C\CCCC(=O)O [Eicosapentaenoic acid (C20:5), Eicosapentaenoic acid] |  |  |
|  |  |  | CC(C)=CCCC(C)=CCCC(C)=CC(=O)O [farnesoic acid] | specifically responsive |  |
| 5.7 ± 1.4 µM | 5.6 ± 1.6 µM | 13 ± 3.3 µM | CCCCCCCCCCCC(=O)O [Lauric acid (C12), Lauric acid] | specifically responsive |  |
|  |  |  | CCCC(=O)O [Butyric acid (C4), Butyric acid] |  | insulin secretion enhancing activity [5]: did not show any significant insulin secretion enhancing activity; EC50 Human GPR40 [1, 10]: inactive; EC50 Mouse GPR40 [2, 10]: inactive; EC50 Rat GPR40 [3, 10]: inactive; intracellular Ca^2+ level in MIN6 [6]: not observed |
|  |  |  | CCCCC/C=C\C/C=C\C/C=C\C/C=C\CCCCCC(=O)O [adrenic acid] | specifically responsive |  |
|  |  |  | docosatrienoic acid | specifically responsive |  |
|  |  |  | CCCCCCCCC#CCC#CCC#CCCCC(=O)O [5.8.11-eicosatriynoic acid] | specifically responsive |  |
| 4.7 ± 0.4 µM | 6.5 ± 1.5 µM | 11 ± 1.5 µM | CCCCCCCC/C=C/CCCCCCCC(=O)O [Elaidic acid (C18:1), Elaidic acid] |  |  |
| 43 ± 2.2 µM | > 100 µM | > 100 µM | CCCCCCCCCC(=O)O [Capric acid (C10), Capric acid] |  |  |
|  |  |  | eicosatrienoic acid | specifically responsive |  |
|  |  |  | CC/C=C\C/C=C\C/C=C\CCCCCCCC(=O)O [α-Linolenic acid (C18:3), α-Linolenic acid] |  | insulin secretion enhancing activity [5]: significantly noted; EC50 [1]: 2 ± 0.3 µM; EC50 [2]: 3.6 ± 0.3 µM; EC50 [3]: 4 ± 0.7 µM |
|  |  |  | CCCCCC#CCC#CCC#CCC#CCCCC(=O)O [5.8.11.14-eicosatetraynoic acid] | specifically responsive |  |
|  |  |  | CC(=O)O [Acetic acid (C2), Acetic acid] |  | EC50 Human GPR40 [1, 10]: inactive; EC50 Mouse GPR40 [2, 10]: inactive; EC50 Rat GPR40 [3, 10]: inactive |
|  |  |  | eicosadienoic acid | specifically responsive |  |
| > 300 µM | > 300 µM | > 300 µM | CCCCCCCCCCCCCCCCCC(=O)O [Stearic acid (C18), Stearic acid] |  |  |
|  | 6 ± 0.8 µM |  | CCCCCCCCCCCCCC(=O)O [Myristic acid (C14), Myristic acid] |  |  |

| Compound | EC50 [1, 7] | EC50 [2, 8] | EC50 [3, 9] | response (increase in intracellular calcium level) of GPR40-expressing CHO-K1 cells [4] | also measured |
| --- | --- | --- | --- | --- | --- |
| CCCCCCCC(=O)O [Caprylic acid (C8), Caprylic acid] | > 300 µM |  | > 300 µM |  | EC50 Mouse GPR40 [2, 10]: inactive |
| CCCCCC(=O)O [Caproic acid (C6), Caproic acid] |  |  | > 300 µM |  | EC50 Human GPR40 [1, 10]: inactive; EC50 Mouse GPR40 [2, 10]: inactive |
